{
  "source": "paper PMC6686047",
  "about": "“Efficient Inhibition of Human Papillomavirus Infection by L2 Minor Capsid-Derived Lipopeptide” (mBio, 2019)",
  "note": "Bridge positions count the residues as written; N and C are the ends. Ends that are not written are not given here. Peptide text beside a SMILES is read from it. * marks the point of attachment. Stearoyl = CCCCCCCCCCCCCCCCCC(=O)*",
  "data": [
    {"tested_on": "HPV-Lucia (HPV16 pseudovirus carrying Lucia)", "settings": "4 h", "units": {"IC50": "nM"}, "values": [
      {"compound": "ASATQLYKTCKQAGTCPPDIIPKVEGKTIADQILQYGSMGVFFK(Stearoyl) (disulfide 10-16) [13-55st]", "IC50": 100},
      {"compound": "CCCCCCCCCCCCCCCCCC(=O)NCCCC[C@H](NC(=O)[C@H](CO)NC(=O)CNC(=O)[C@H](Cc1ccc(O)cc1)NC(=O)[C@H](CCC(N)=O)NC(=O)[C@H](CC(C)C)NC(=O)[C@@H](NC(=O)[C@H](CCC(N)=O)NC(=O)[C@H](CC(=O)O)NC(=O)[C@H](C)NC(=O)[C@@H](NC(=O)[C@@H](NC(=O)[C@H](CCCCN)NC(=O)CNC(=O)[C@H](CCC(=O)O)NC(=O)[C@@H](NC(=O)[C@H](CCCCN)NC(=O)[C@@H]1CCCN1C(=O)[C@@H](NC(=O)[C@@H](NC(=O)[C@H](CC(=O)O)NC(=O)[C@@H]1CCCN1C(=O)[C@@H]1CCCN1C(=O)[C@@H]1CSSC[C@H](NC(=O)[C@@H](NC(=O)[C@H](CCCCN)NC(=O)[C@H](Cc2ccc(O)cc2)NC(=O)[C@H](CC(C)C)NC(=O)[C@H](CCC(N)=O)NC(=O)[C@@H](NC(=O)[C@H](C)NC(=O)[C@H](CO)NC(=O)[C@H](C)N)[C@@H](C)O)[C@@H](C)O)C(=O)N[C@@H](CCCCN)C(=O)N[C@@H](CCC(N)=O)C(=O)N[C@@H](C)C(=O)NCC(=O)N[C@@H]([C@@H](C)O)C(=O)N1)[C@@H](C)CC)[C@@H](C)CC)C(C)C)[C@@H](C)O)[C@@H](C)CC)[C@@H](C)CC)C(=O)O", "note": "[13-50st] (H-ASATQLYKTCKQAGTCPPDIIPKVEGKTIADQILQYGSK(Stearoyl)-OH; disulfide 10-16)", "IC50": 30},
      {"compound": "ASATQLYKTCKQAGTCPPDIIPKVEGKTIADQILQYGSMGVFF (disulfide 10-16) [13-55-no st]", "IC50": "> 1000"},
      {"compound": "CCCCCCCCCCCCCCCCCC(=O)NCCCC[C@H](NC(=O)[C@H](CO)NC(=O)CNC(=O)[C@H](Cc1ccc(O)cc1)NC(=O)[C@H](CCC(N)=O)NC(=O)[C@H](CC(C)C)NC(=O)[C@@H](NC(=O)[C@H](CCC(N)=O)NC(=O)[C@H](CCCCN)NC(=O)[C@H](C)NC(=O)[C@@H](NC(=O)[C@@H](NC(=O)[C@H](CCCCN)NC(=O)CNC(=O)[C@H](CCC(=O)O)NC(=O)[C@@H](NC(=O)[C@H](CCCCN)NC(=O)[C@@H]1CCCN1C(=O)[C@@H](NC(=O)[C@@H](NC(=O)[C@H](CC(=O)O)NC(=O)[C@@H]1CCCN1C(=O)[C@@H]1CCCN1C(=O)[C@@H]1CSSC[C@H](NC(=O)[C@@H](NC(=O)[C@H](CCCCN)NC(=O)[C@H](Cc2ccc(O)cc2)NC(=O)[C@H](CC(C)C)NC(=O)[C@H](CCC(N)=O)NC(=O)[C@@H](NC(=O)[C@H](C)NC(=O)[C@H](CO)NC(=O)[C@H](C)N)[C@@H](C)O)[C@@H](C)O)C(=O)N[C@@H](CCCCN)C(=O)N[C@@H](CCC(N)=O)C(=O)N[C@@H](C)C(=O)NCC(=O)N[C@@H]([C@@H](C)O)C(=O)N1)[C@@H](C)CC)[C@@H](C)CC)C(C)C)[C@@H](C)O)[C@@H](C)CC)[C@@H](C)CC)C(=O)O", "note": "[13-50st-D43K] (H-ASATQLYKTCKQAGTCPPDIIPKVEGKTIAKQILQYGSK(Stearoyl)-OH; disulfide 10-16)", "IC50": 200}
    ]},
    {"tested_on": "HPV-Lucia (HPV16 pseudovirus carrying Lucia)", "settings": "[…]; CHO-K1 cells, HPV-Lucia; Lucia activity at 36 hpi; potency compared with WT peptide (13-48, 100%) used at four concentrations", "units": {"Relative anti-HPV activity": "%"}, "values": [
      {"compound": "pZeo5-tSA-Furin-13-46GT-CVIM: HPV16 L2N lipopeptide with L2N13-46", "Relative anti-HPV activity": 200},
      {"compound": "pZeo5-tSA-Furin-13-44GT-CVIM: HPV16 L2N13-48 lipopeptide with deletion of ILQY", "Relative anti-HPV activity": "< 0.8"},
      {"compound": "pZeo5-tSA-Furin-13-48GT-CVIM-D31K: HPV16 L2N13-48 lipopeptide with D31K", "Relative anti-HPV activity": 20},
      {"compound": "pZeo5-tSA-Furin-13-48GT-CVIM-QQKK: HPV16 L2N13-48 lipopeptide with double Q44K and Q47K", "Relative anti-HPV activity": 150},
      {"compound": "pZeo5-tSA-Furin-13-46-CVIM: HPV16 L2N13-46 lipopeptide with deletion of QYGT", "Relative anti-HPV activity": 5},
      {"compound": "pZeo5-tSA-Furin-13-48GT-CVIM-d42: HPV16 L2N13-48 lipopeptide with deletion of A42 (ASATQLYKTCKQAGTCPPDIIPKVEGKTIEQILQY; not fully specified (C-terminus); cysteine pairing not given here; also: CVIM isoprenylation motif lipopeptide; UniProt P03107 13-48, looked up, variant A42*)", "Relative anti-HPV activity": "< 1"}
    ]}
  ]
}
